Test results reported in ChEMBL document CHEMBL3870356, “Investigation of a Bicyclo[1.1.1]pentane as a Phenyl Replacement within an LpPLA2 Inhibitor” (ACS Med Chem Lett, 2017).
In brackets after ≈: the same amount, converted by molar mass.

Experiments:
[1] = Lipophilicity, logD of the compound at pH 7.4 by chromatography; format: physicochemical; settings: buffer
[2] = Kinetic solubility of the compound by chemiluminescent nitrogen detection assay
[3] = Clearance in human liver microsomes; format: ADME
[4] = Thermodynamic solubility of the compound in fasted state simulated intestinal fluid; format: ADME; settings: read-out: Therm_solubility
[5] = molecular target: T1, Platelet-activating factor acetylhydrolase (Homo sapiens, UniProt Q13093); assay: Inhibition of human recombinant LpPLA2
T1 sequence (Q13093 whole entry): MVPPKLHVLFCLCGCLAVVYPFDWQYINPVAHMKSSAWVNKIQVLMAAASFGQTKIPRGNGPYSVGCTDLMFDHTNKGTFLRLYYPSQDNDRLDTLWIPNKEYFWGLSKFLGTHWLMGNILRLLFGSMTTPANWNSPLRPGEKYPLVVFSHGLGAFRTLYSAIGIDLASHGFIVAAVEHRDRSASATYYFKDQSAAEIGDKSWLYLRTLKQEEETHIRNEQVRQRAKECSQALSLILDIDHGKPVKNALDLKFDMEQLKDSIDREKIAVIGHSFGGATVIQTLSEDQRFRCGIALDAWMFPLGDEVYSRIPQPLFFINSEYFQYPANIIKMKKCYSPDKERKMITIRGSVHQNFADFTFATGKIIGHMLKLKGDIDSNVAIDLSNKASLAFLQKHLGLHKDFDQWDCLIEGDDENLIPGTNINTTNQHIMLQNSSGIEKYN

[6] = Permeability of the compound at pH 7.4 by PAMPA; format: ADME; settings: read-out: permeability

Row | SMILES | chromatographic logD [1] | solubility kinetic [2] [µM] | CLH [3] [mL/min/g] | solubility thermodynamic [4] [µg/mL] | IC50 [5] [nM] | Papp [6] [×10⁻⁶ cm/s]
1 | COCCN1CCC(N(CC23CC(c4ccc(C(F)(F)F)cc4)(C2)C3)C(=O)Cn2c(SCc3cccc(F)c3F)cc(=O)c3ccccc32)CC1 | 7.06 | 32 (≈ 23.2 µg/mL) | 0.76 | 635 (≈ 875 µM) |  | 
2 | CCN(CC)CCN(CC12CC(c3ccc(C(F)(F)F)cc3)(C1)C2)C(=O)Cn1c(SCc2ccc(F)cc2)nc(=O)c2c1CCC2 | 7 | 74 (≈ 48.6 µg/mL) | 1.22 | > 1000 | 0.398 | 70.5
3 | COCCN1CCC(N(Cc2ccc(-c3ccc(C(F)(F)F)cc3)cc2)C(=O)Cn2c(SCc3cccc(F)c3F)cc(=O)c3ccccc32)CC1 [RILAPLADIB] | 6.74 | < 1 |  | 203 (≈ 276 µM) |  | 
4 | CCN(CC)CCN(Cc1ccc(-c2ccc(C(F)(F)F)cc2)cc1)C(=O)Cn1c(SCc2ccc(F)cc2)nc(=O)c2c1CCC2 [DARAPLADIB] |  | 8 (≈ 5.33 µg/mL) |  | 399 (≈ 598 µM) |  | 
